Source: PubChem BioAssay AID1259411 (Chemical Carcinogenesis Research Information System (CCRIS), 2018)
The source made the active and inactive calls. No rule for the calls is given here.

Test system: rodent carcinogenicity bioassays, tumor incidence
Test: CCRIS carcinogenicity studies
Conditions: Dose: 0, Dose: 0
Method in brief: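 Archive of carcinogenicity, mutagenicity, tumor promotion and tumor inhibition results drawn from journals, NCI reports and other sources, expert-reviewed; covers 1985-2011 and is no longer updated.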

## CN(C)CCOc1ccc(/C(=C(/CCCl)c2ccccc2)c2ccccc2)cc1
Species: RAT, Strain/Sex: SPRAGUE-DAWLEY/FEMALE, Route: GAVAGE, 12, 24 MG/KG IN 0.5% CARBOXYMETHYLCELLULOSE 1/D 7 D/WK FOR UP TO 12 MO (STUDY DURATION: 15 MO), 12, 24 MG/KG IN 0.5% CARBOXYMETHYLCELLULOSE 1/D 7 D/WK FOR UP TO 12 MO (STUDY DURATION: 15 MO)
  carcinogen call: inactive; negative
Species: RAT, Strain/Sex: SPRAGUE-DAWLEY/FEMALE, Route: ORAL, 0.12, 1.2, 5, 12 MG/KG/D IN DIET FOR DURATION OF STUDY (STUDY DURATION: 104 WK), 0.12, 1.2, 5, 12 MG/KG/D IN DIET FOR DURATION OF STUDY (STUDY DURATION: 104 WK)
  carcinogen call: inactive; negative
Species: RAT, Strain/Sex: SPRAGUE-DAWLEY/MALE, Route: ORAL, 0.12, 1.2, 5, 12 MG/KG/D IN DIET FOR DURATION OF STUDY (STUDY DURATION: 104 WK), 0.12, 1.2, 5, 12 MG/KG/D IN DIET FOR DURATION OF STUDY (STUDY DURATION: 104 WK)
  carcinogen call: inactive; negative

## CN(C)CCOC(C)(c1ccccc1)c1ccccn1 (stereo unspecified)
Species: MOUSE, Strain/Sex: B6C3F1/FEMALE, Route: ORAL, 190, 375, 750 PPM IN DIET FOR 2 YR (STUDY DURATION: 2 YR), 190, 375, 750 PPM IN DIET FOR 2 YR (STUDY DURATION: 2 YR), Tumor Site: Type of Lesion: LIVER: HEPATOCELLULAR ADENOMA, THYROID: FOLLICULAR CELL ADENOMA
  carcinogen call: active; positive
Species: MOUSE, Strain/Sex: B6C3F1/MALE, Route: ORAL, 190, 375, 750 PPM IN DIET FOR 2 YR (STUDY DURATION: 2 YR), 190, 375, 750 PPM IN DIET FOR 2 YR (STUDY DURATION: 2 YR), Tumor Site: Type of Lesion: LIVER: HEPATOCELLULAR ADENOMA, THYROID: FOLLICULAR CELL ADENOMA
  carcinogen call: active; positive
Species: RAT, Strain/Sex: F344/FEMALE, Route: ORAL, 500, 1000, 2000 PPM IN DIET FOR 2 YR (STUDY DURATION: 2 YR), 500, 1000, 2000 PPM IN DIET FOR 2 YR (STUDY DURATION: 2 YR)
  carcinogen call: inactive; negative

## CC(C)[C@H](C(=O)O[C@H](C#N)c1cccc(Oc2ccccc2)c1)c1ccc(Cl)cc1
Species: Mouse, Strain/Sex: Crl:CD-17BR/Female (80/Group), Route: Oral, 35, 150 ppm in diet for 18 mo, study duration 18 mo, 35, 150 ppm in diet for 18 mo, study duration 18 mo
  carcinogen call: inactive; negative. a 350 ppm group was terminated at study day 58 due to self-trauma and
Species: Mouse, Strain/Sex: Crl:CD-17BR/Male (80/Group), Route: Oral, 35, 150 ppm in diet for 18 mo, study duration 18 mo, 35, 150 ppm in diet for 18 mo, study duration 18 mo
  carcinogen call: inactive; negative. a 350 ppm group was terminated at study day 58 due to self-trauma and

## Nc1ccc(N)c2c1C(=O)c1c(N)ccc(N)c1C2=O
Species: MOUSE, Strain/Sex: B6C3F1/FEMALE, Route: ORAL, 600, 1200, 2500 PPM IN DIET FOR 104 WK (STUDY DURATION: 105 WK), 600, 1200, 2500 PPM IN DIET FOR 104 WK (STUDY DURATION: 105 WK)
  carcinogen call: inactive; negative
Species: MOUSE, Strain/Sex: B6C3F1/MALE, Route: ORAL, 600, 1200, 2500 PPM IN DIET FOR 104 WK (STUDY DURATION: 105 WK), 600, 1200, 2500 PPM IN DIET FOR 104 WK (STUDY DURATION: 105 WK), Tumor Site: Type of Lesion: LIVER: HEPATOCELLULAR ADENOMA OR CARCINOMA, LUNG: ALVEOLAR/BRONCHIOLAR ADENOMA OR CARCINOMA
  carcinogen call: equivocal
Species: RAT, Strain/Sex: F344/FEMALE, Route: ORAL, 1250, 2500, 5000 PPM IN DIET FOR 103 WK (STUDY DURATION: 105 WK), 1250, 2500, 5000 PPM IN DIET FOR 103 WK (STUDY DURATION: 105 WK), Tumor Site: Type of Lesion: URINARY BLADDER: SQUAMOUS CELL PAPILLOMA, SQUAMOUS CELL CARCINOMA, TRANSITIONAL CELL PAPILLOMA, TRANSITIONAL CELL CARCIN
  carcinogen call: active; positive
Species: RAT, Strain/Sex: F344/MALE, Route: ORAL, 1250, 2500, 5000 PPM IN DIET FOR 103 WK (STUDY DURATION: 105 WK), 1250, 2500, 5000 PPM IN DIET FOR 103 WK (STUDY DURATION: 105 WK), Tumor Site: Type of Lesion: URINARY BLADDER: SQUAMOUS CELL PAPILLOMA, SQUAMOUS CELL PAPILLOMA OR CARCINOMA, TRANSITIONAL CELL PAPILLOMA, TRANSITIONA
  carcinogen call: active; positive

## C#CCN1C(=O)COc2cc(F)c(N3C(=O)C4=C(CCCC4)C3=O)cc21
Species: Mouse, Strain/Sex: Crj:CD-1 (ICR)/Female (51/Group), Route: Oral, 36.6, 346.4, 859.1 mg/kg/day of 94.8% flumioxazin in diet for 78 wk, study duration 78 wk, 36.6, 346.4, 859.1 mg/kg/day of 94.8% flumioxazin in diet for 78 wk, study duration 78 wk
  carcinogen call: inactive; negative
Species: Mouse, Strain/Sex: Crj:CD-1 (ICR)/Male (51/Group), Route: Oral, 31.1, 314.9, 754.1 mg/kg/day of 94.8% flumioxazin in diet for 78 wk, study duration 78 wk, 31.1, 314.9, 754.1 mg/kg/day of 94.8% flumioxazin in diet for 78 wk, study duration 78 wk
  carcinogen call: inactive; negative
Species: Rat, Strain/Sex: Crj:CD(SD)/Female (50/Group), Route: Oral, 2.2, 21.8, 43.6 mg/kg/day of 94.8% flumioxazin in diet for up to 2 yr, study duration 2 yr, 2.2, 21.8, 43.6 mg/kg/day of 94.8% flumioxazin in diet for up to 2 yr, study duration 2 yr
  carcinogen call: inactive; negative
Species: Rat, Strain/Sex: Crj:CD(SD)/Male (50/Group), Route: Oral, 1.8, 18.0, 36.5 mg/kg/day of 94.8% flumioxazin in diet for up to 2 yr, study duration 2 yr, 1.8, 18.0, 36.5 mg/kg/day of 94.8% flumioxazin in diet for up to 2 yr, study duration 2 yr
  carcinogen call: inactive; negative

## CCCCCCCC/C=C/CCCCCCCC(=O)OCCOCC(OCCO)C1OCC(OCCO)C1OCCO (stereo unspecified)
Species: MOUSE, Strain/Sex: B6C3F1/FEMALE, Route: ORAL, 25000, 50000 PPM IN FEED 7 D/WK FOR 103 WK (STUDY DURATION: 103 WK), 25000, 50000 PPM IN FEED 7 D/WK FOR 103 WK (STUDY DURATION: 103 WK)
  carcinogen call: inactive; negative
Species: MOUSE, Strain/Sex: B6C3F1/MALE, Route: ORAL, 25000, 50000 PPM IN FEED 7 D/WK FOR 103 WK (STUDY DURATION: 103 WK), 25000, 50000 PPM IN FEED 7 D/WK FOR 103 WK (STUDY DURATION: 103 WK)
  carcinogen call: inactive; negative
Species: RAT, Strain/Sex: F344/FEMALE, Route: ORAL, 25000, 50000 PPM IN FEED 7 D/WK FOR 103 WK (STUDY DURATION: 103 WK), 25000, 50000 PPM IN FEED 7 D/WK FOR 103 WK (STUDY DURATION: 103 WK)
  carcinogen call: inactive; negative
Species: RAT, Strain/Sex: F344/MALE, Route: ORAL, 25000, 50000 PPM IN FEED 7 D/WK FOR 103 WK (STUDY DURATION: 103 WK), 25000, 50000 PPM IN FEED 7 D/WK FOR 103 WK (STUDY DURATION: 103 WK), Tumor Site: Type of Lesion: ADRENAL MEDULLA: PHEOCHROMOCYTOMA
  carcinogen call: equivocal

## O=CN(O)c1ccc(/C=C/c2ccccc2)cc1
Species: RAT, Strain/Sex: STRAIN-CD/FEMALE, Route: INTRAPERITONEAL, 10 UMOL/KG BW 2/WK FOR 6 WK (STUDY DURATION: 62 WK), Tumor Site: Type of Lesion: LIVER: NEOPLASTIC NODULE, MAMMARY GLAND: TUMOR
  carcinogen call: active; positive
Species: RAT, Strain/Sex: STRAIN-CD/MALE, Route: INTRAPERITONEAL, 10 UMOL/KG BW 2/WK FOR 6 WK (STUDY DURATION: 62 WK), Tumor Site: Type of Lesion: TESTICLE: MESOTHELIOMA, PANCREAS(ACINUS): ADENOMA
  carcinogen call: active; positive

## O[C@H]1C=Cc2c(ccc3c2-c2cccc4cccc-3c24)[C@@H]1O
Species: MOUSE, Strain/Sex: CD-1/FEMALE, Route: INTRAPERITONEAL, 0.275, 1.1 UMOL (TOTAL DOSE) ADMINISTERED OVER DAYS 1, 8, AND 15 OF LIFE (STUDY DURATION: 52 WEEKS), 0.275, 1.1 UMOL (TOTAL DOSE) ADMINISTERED OVER DAYS 1, 8, AND 15 OF LIFE (STUDY DURATION: 52 WEEKS), Tumor Site: Type of Lesion: LUNG: ALVEOLAR/BRONCHIOLAR CARCINOMA
  carcinogen call: active; positive
Species: MOUSE, Strain/Sex: CD-1/MALE, Route: INTRAPERITONEAL, 0.275, 1.1 UMOL(TOTAL DOSE) ADMINISTERED OVER DAYS 1, 8, AND 15 OF LIFE (STUDY DURATION: 52 WEEKS), 0.275, 1.1 UMOL(TOTAL DOSE) ADMINISTERED OVER DAYS 1, 8, AND 15 OF LIFE (STUDY DURATION: 52 WEEKS), Tumor Site: Type of Lesion: LUNG: ALVEOLAR/BRONCHIOLAR CARCINOMA, LIVER: ADENOMA OR CARCINOMA
  carcinogen call: active; positive

## O=C1OC2(c3ccc(O)cc3Oc3cc(O)ccc32)c2ccccc21
Species: MOUSE, Strain/Sex: SWISS-WEBSTER/FEMALE, Route: DERMAL, 1% IN 0.1 ML 0.1% SODIUM LAURYL SULFATE 1/WK FOR 18 MO (STUDY DURATION: 18 MO)
  carcinogen call: inactive; negative
Species: MOUSE, Strain/Sex: SWISS-WEBSTER/MALE, Route: DERMAL, 1% IN 0.1 ML 0.1% SODIUM LAURYL SULFATE 1/WK FOR 18 MO (STUDY DURATION: 18 MO)
  carcinogen call: inactive; negative
